ChEMBL document CHEMBL1201862, “PubChem BioAssay data set” (2004)
Active and inactive are the calls of the source.

Experiments:
[1] = target: T1, Carboxy-terminal domain RNA polymerase II polypeptide A small phosphatase 1 (Homo sapiens, UniProt Q9GZU7); assay: inhibitors of CTDSP1, concentration-response testing, biochemical assay, absorbance-based, actives from ultra-high-throughput screening (AID 540297); type: functional
T1 sequence (Q9GZU7 whole entry): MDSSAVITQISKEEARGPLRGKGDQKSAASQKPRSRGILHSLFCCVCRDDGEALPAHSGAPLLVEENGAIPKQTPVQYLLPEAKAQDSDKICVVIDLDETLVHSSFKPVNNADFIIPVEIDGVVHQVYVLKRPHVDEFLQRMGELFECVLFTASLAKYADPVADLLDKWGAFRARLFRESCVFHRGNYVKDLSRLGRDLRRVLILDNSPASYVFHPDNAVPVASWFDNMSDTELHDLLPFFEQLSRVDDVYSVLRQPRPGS

[2] = target: Low molecular weight phosphotyrosine protein phosphatase (Homo sapiens, UniProt P24666); type: functional; conditions: read-out: IC50_Mean;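 note: Dose-response confirmation assay measuring inhibition of LMPTP enzyme activity by fluorescence intensity read-out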
Low molecular weight phosphotyrosine protein phosphatase, sequence (P24666 whole entry, the tested form may be a part): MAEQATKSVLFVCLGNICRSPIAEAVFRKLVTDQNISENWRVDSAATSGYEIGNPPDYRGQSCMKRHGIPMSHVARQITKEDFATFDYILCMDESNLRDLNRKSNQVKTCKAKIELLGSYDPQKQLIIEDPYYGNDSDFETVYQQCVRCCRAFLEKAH

[3] = target: T2, Tyrosine-protein phosphatase non-receptor type 22 (Homo sapiens, UniProt Q9Y2R2); assay: LYP phosphatase inhibition for selectivity, dose response, selectivity assay for LMPTP inhibitor project, biochemical, fluorescence, LYP catalytic domain (AID 652006); type: functional; conditions: read-out: IC50_Mean
T2 sequence (Q9Y2R2 whole entry): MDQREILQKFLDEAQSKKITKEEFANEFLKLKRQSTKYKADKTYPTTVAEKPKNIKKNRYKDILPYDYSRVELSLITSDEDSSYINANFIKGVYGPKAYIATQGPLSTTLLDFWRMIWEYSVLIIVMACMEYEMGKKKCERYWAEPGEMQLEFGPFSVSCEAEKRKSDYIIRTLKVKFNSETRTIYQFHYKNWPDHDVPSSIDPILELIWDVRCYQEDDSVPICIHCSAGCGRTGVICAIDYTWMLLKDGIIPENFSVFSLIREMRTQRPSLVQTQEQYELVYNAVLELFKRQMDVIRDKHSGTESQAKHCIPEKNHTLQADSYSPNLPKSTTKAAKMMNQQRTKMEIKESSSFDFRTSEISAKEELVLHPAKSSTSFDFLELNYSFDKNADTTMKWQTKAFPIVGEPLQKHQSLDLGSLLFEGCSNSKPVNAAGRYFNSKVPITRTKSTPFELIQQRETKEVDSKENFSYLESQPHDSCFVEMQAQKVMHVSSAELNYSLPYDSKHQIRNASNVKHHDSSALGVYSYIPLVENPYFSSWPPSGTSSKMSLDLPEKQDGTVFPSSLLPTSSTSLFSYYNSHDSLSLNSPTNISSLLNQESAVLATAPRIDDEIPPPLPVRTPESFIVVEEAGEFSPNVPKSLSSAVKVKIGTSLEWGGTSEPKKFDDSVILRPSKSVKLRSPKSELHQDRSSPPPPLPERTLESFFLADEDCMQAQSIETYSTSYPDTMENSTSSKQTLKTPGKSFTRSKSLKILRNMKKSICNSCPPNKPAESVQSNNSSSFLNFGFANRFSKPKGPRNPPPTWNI

[4] = target: T3, Corticotropin-releasing factor receptor 2/Corticotropin-releasing factor-binding protein (Homo sapiens, UniProt P24387+Q13324); assay: Dose Response confirmation of uHTS hits for small molecule antagonists of the CRF-binding protein and CRF-R2 receptor complex.; type: functional; conditions: read-out: IC50_Mean
T3 sequence (Q13324 whole entry): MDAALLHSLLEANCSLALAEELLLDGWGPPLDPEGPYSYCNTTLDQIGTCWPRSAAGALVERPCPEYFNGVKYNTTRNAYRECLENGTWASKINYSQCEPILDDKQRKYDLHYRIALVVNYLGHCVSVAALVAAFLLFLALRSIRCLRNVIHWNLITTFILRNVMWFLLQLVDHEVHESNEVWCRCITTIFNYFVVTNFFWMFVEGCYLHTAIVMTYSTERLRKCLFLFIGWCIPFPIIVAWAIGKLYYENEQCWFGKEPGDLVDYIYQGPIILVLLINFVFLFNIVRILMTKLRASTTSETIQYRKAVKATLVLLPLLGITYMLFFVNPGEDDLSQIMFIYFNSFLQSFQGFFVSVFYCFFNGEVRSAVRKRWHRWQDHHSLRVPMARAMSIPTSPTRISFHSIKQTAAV
T3 sequence (P24387 whole entry): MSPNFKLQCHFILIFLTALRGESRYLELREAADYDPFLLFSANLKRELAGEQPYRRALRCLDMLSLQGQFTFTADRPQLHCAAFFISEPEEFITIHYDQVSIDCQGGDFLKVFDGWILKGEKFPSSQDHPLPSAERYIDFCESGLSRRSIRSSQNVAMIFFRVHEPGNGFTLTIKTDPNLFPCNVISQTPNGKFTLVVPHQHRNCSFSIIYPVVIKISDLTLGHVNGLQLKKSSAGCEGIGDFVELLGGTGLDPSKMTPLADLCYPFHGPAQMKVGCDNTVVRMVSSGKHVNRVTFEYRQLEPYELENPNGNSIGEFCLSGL

[5] = target: T3, Corticotropin-releasing factor receptor 2/Corticotropin-releasing factor-binding protein; assay: activators of CRF receptor 2 with binding protein – uHTS hits, confirmation (AID 602473); type: functional; conditions: read-out: EC50_Mean
[6] = CRF-BP/CRF-R2 complex antagonists, dose response, cell-based, uHTS hits, 384-well (AID 651639); type: functional, Homo sapiens; conditions: read-out: IC50_Mean

IC50 [1]	IC50 [2]	IC50 [3]	IC50 [4]	EC50 [5]	IC50 [6]	Compound
4.44 µM (active)	21 µM (inactive)	55.6 µM (inactive)	–	–	–	NC(=O)Cc1ccc(C(=O)CSc2nnc(-c3ccncc3)n2C2CC2)s1
–	–	–	32.1 µM (active)	> 53 µM (inactive)	> 20 µM (inactive)	COCCN=C(S)N1CCc2cc(OC)c(OC)cc2C1COc1cc(C)cc(C)c1 (stereo unspecified)
